{
  "source": "the Kinase Knowledgebase extract (Sharma et al. 2016)",
  "data": [
    {"biological_target": "EGFR (UniProt P00533)", "sequence (P00533 whole entry, looked up)": "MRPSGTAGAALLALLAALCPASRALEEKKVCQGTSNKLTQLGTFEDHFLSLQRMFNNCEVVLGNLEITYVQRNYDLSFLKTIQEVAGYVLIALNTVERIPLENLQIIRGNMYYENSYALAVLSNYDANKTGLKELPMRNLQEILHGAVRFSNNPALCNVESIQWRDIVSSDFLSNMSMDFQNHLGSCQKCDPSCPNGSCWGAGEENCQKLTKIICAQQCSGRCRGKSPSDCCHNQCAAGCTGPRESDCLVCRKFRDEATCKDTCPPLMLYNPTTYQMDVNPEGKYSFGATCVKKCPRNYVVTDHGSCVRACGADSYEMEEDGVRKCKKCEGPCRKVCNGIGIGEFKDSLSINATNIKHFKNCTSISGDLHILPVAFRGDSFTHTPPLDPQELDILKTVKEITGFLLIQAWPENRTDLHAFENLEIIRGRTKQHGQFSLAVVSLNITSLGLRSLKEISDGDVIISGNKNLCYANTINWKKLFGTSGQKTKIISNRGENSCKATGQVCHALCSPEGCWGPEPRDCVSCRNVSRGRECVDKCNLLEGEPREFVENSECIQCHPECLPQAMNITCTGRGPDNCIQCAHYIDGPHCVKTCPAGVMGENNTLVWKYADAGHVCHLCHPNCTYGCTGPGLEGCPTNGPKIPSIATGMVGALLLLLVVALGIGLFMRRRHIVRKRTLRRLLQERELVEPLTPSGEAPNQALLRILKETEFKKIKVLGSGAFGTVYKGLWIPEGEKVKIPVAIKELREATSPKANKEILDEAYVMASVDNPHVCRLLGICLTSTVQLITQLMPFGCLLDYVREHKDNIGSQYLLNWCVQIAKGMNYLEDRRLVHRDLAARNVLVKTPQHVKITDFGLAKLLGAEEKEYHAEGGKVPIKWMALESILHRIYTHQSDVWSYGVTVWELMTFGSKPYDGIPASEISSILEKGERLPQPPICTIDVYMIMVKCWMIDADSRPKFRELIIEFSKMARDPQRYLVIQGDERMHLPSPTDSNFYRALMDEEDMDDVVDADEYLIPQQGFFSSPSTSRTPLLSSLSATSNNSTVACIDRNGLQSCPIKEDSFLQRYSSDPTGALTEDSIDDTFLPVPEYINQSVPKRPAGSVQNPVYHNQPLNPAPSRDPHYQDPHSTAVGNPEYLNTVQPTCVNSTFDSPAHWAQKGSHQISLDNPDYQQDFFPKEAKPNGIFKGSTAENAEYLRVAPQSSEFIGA", "conditions": "concentration not given here", "units": {"inhibition": "%"}, "values": [
      {"smiles": "COCOc1cc(-c2ccccc2)ccc1-c1ccc(C(=O)OCC(C)CC(C)(C)C)cc1", "note": "(centres undefined)", "inhibition": 0},
      {"smiles": "CC(C)(C)c1ccc(-c2ccc(C(=O)O)cc2)c(O)c1", "inhibition": 0},
      {"smiles": "O=C(NCc1ccccc1)c1ccc(-c2ccc(-c3ccccc3)cc2O)cc1", "inhibition": 0},
      {"smiles": "COCOc1cc(C(C)(C)C)ccc1-c1ccc(C(=O)NCc2ccccc2)cc1", "inhibition": 0},
      {"smiles": "COC(=O)c1ccc(-c2ccc(-c3ccccc3)cc2O)cc1", "inhibition": 14},
      {"smiles": "CC(C)(C)c1cc(O)cc(-c2ccc(CO)cc2)c1", "inhibition": 0},
      {"smiles": "O=C(NCc1ccccc1)c1ccc(-c2cccc(-c3ccccc3)c2O)cc1", "inhibition": 0},
      {"smiles": "COCOc1cc(-c2ccccc2)ccc1-c1ccc(C(=O)NCc2ccccc2)cc1", "inhibition": 0},
      {"smiles": "COCOc1cc(C(C)(C)C)ccc1-c1ccc(C(=O)OC)cc1", "inhibition": 0},
      {"smiles": "CC(C)(C)c1cc(O)cc(-c2ccc(C(=O)NCc3ccccc3)cc2)c1", "inhibition": 0}
    ]},
    {"biological_target": "EGFR (Hamster) (UniProt P00533)", "sequence (P00533 whole entry, looked up)": "as above", "conditions": "er22, dose or concentration not given here", "units": {"inhibition": "%"}, "values": [
      {"smiles": "CC(C)(C)c1ccc(-c2ccc(C(=O)O)cc2)c(O)c1", "inhibition": 0},
      {"smiles": "COC(=O)c1ccc(-c2cc(O)cc(C(C)(C)C)c2)cc1", "inhibition": 0},
      {"smiles": "COC(=O)c1ccc(-c2ccc(C(C)(C)C)cc2O)cc1", "inhibition": 0},
      {"smiles": "O=C(NCc1ccccc1)c1ccc(-c2cccc(-c3ccccc3)c2O)cc1", "inhibition": 0}
    ]}
  ]
}
